Measurements from patent US20220177508A1, “C10-Cyclic Substituted 13-Membered Macrolides and Uses Thereof” (Zikani Therapeutics, Inc., priority 2018, published 2022).
Values after ≈ are worked out from the molar mass of the structure shown.

Legend:
Assay type in all cases: cell-based
K. pneumoniae MP-546 = assay: Broth dilution MIC determination (CLSI), K. pneumoniae MP-546; settings: Klebsiella pneumoniae, MP546; strain MP-546, broth dilution
E. coli MP-4 = assay: Broth dilution MIC determination (CLSI), E. coli MP-4; settings: Escherichia coli, MP4; strain MP-4, broth dilution; read-out: MIC E. coli MP-4
S. aureus MP-12 = assay: Broth dilution MIC determination (CLSI), S. aureus MP-12; settings: Staphylococcus aureus, MP12; strain MP-12, broth dilution
P. aeruginosa MP-3 = assay: Broth dilution MIC determination (CLSI), P. aeruginosa MP-3; settings: Pseudomonas aeruginosa, MP3; strain MP-3, broth dilution
A. baumannii MP-15 = assay: Broth dilution MIC determination (CLSI), A. baumannii MP-15; settings: Acinetobacter baumannii, MP15; strain MP-15, broth dilution; read-out: MIC A. baumanii MP-15

SMILES | MIC (K. pneumoniae MP-546) [µg/mL] | MIC (E. coli MP-4) [µg/mL] | MIC (S. aureus MP-12) [µg/mL] | MIC (P. aeruginosa MP-3) [µg/mL] | MIC (A. baumannii MP-15) [µg/mL]
CNCC(=O)N1C2CCC1CC([C@@H]1COC(=O)C(C)(C)C(=O)[C@H](C)[C@@H](O[C@@H]3O[C@H](C)C[C@H](N(C)C)[C@H]3O)[C@](C)(OC)C[C@@H](C)CN1C)C2 (stereo partly drawn) [Compound 44, (3R,6R,8R,9R,10R)-9-(((2S,3R,4S,6R)-4-(dimethylamino)-3-hydroxy-6-methyltetrahydro-2H-pyran-2-yl)oxy)-8-methoxy-4,6,8,10,12,12-hexamethyl-3-(8-(methylglycyl)-8-azabicyclo[3.2.1]octan-3-yl)-1-oxa-4-azacyclotridecane-11,13-dione] | > 32 | 4 to 32 (≈ 5.87 to 47 µM) | > 32 | > 32 | > 32
CO[C@]1(C)C[C@@H](C)CN(C)[C@H](C2CN(CC(=O)N3CCCC3)C2)COC(=O)C(C)(C)C(=O)[C@H](C)[C@H]1O[C@@H]1O[C@H](C)C[C@H](N(C)C)[C@H]1O [Compound 45, (3R,6R,8R,9R,10R)-9-(((2S,3R,4S,6R)-4-(dimethylamino)-3-hydroxy-6-methyltetrahydro-2H-pyran-2-yl)oxy)-8-methoxy-4,6,8,10,12,12-hexamethyl-3-(1-(2-oxo-2-(pyrrolidin-1-yl)ethyl)azetidin-3-yl)-1-oxa-4-azacyclotridecane-11,13-dione] | 4 to 32 (≈ 6 to 48 µM) | < 4 | 4 to 32 (≈ 6 to 48 µM) | > 32 | > 32
CO[C@]1(C)C[C@@H](C)CN(C)[C@H]([C@@H]2CCN(C(C)C)C2)COC(=O)C(C)(C)C(=O)[C@H](C)[C@H]1O[C@@H]1O[C@H](C)C[C@H](N(C)C)[C@H]1O [Compound 46, (3R,6R,8R,9R,10R)-9-(((2S,3R,4S,6R)-4-(Dimethylamino)-3-hydroxy-6-methyltetrahydro-2H-pyran-2-yl)oxy)-3-((R)-1-isopropylpyrrolidin-3-yl)-8-methoxy-4,6,8,10,12,12-hexamethyl-1-oxa-4-azacyclotridecane-11,13-dione] | 4 to 32 (≈ 6.54 to 52.3 µM) | < 4 | > 32 | > 32 | > 32
CO[C@]1(C)C[C@@H](C)CN(C)[C@H](C2CCNCC2)[C@H](C)OC(=O)C(C)(C)C(=O)[C@H](C)[C@H]1O[C@@H]1O[C@H](C)C[C@H](N(C)C)[C@H]1O [Compound 47, (2S,3R,6R,8R,9R,10R)-9-(((2S,3R,4S,6R)-4-(dimethylamino)-3-hydroxy-6-methyltetrahydro-2H-pyran-2-yl)oxy)-8-methoxy-2,4,6,8,10,12,12-heptamethyl-3-(piperidin-4-yl)-1-oxa-4-azacyclotridecane-11,13-dione] | > 32 | 4 to 32 (≈ 6.69 to 53.5 µM) | > 32 | > 32 | > 32
CO[C@]1(C)C[C@@H](C)CN(C)[C@@H]([C@H]2CCN(C)C2)COC(=O)C(C)(C)C(=O)[C@H](C)[C@H]1O[C@@H]1O[C@H](C)C[C@H](N(C)C)[C@H]1O [Compound 48, (3S,6R,8R,9R,10R)-9-(((2S,3R,4S,6R)-4-(Dimethylamino)-3-hydroxy-6-methyltetrahydro-2H-pyran-2-yl)oxy)-8-methoxy-4,6,8,10,12,12-hexamethyl-3-((S)-1-methylpyrrolidin-3-yl)-1-oxa-4-azacyclotridecane-11,13-dione] | < 4 | < 4 | 4 to 32 (≈ 6.85 to 54.8 µM) | > 32 | > 32
CO[C@]1(C)C[C@@H](C)CN(C)[C@@H](C2CN(C(=O)[C@@H](C)N(C)C)C2)COC(=O)C(C)(C)C(=O)[C@H](C)[C@H]1O[C@@H]1O[C@H](C)C[C@H](N(C)C)[C@H]1O [Compound 52, (3S,6R,8R,9R,10R)-3-(1-(dimethyl-D-alanyl)azetidin-3-yl)-9-(((2S,3R,4S,6R)-4-(dimethylamino)-3-hydroxy-6-methyltetrahydro-2H-pyran-2-yl)oxy)-8-methoxy-4,6,8,10,12,12-hexamethyl-1-oxa-4-azacyclotridecane-11,13-dione] | 4 to 32 (≈ 6.11 to 48.9 µM) | < 4 | > 32 | > 32 | > 32
CO[C@]1(C)C[C@@H](C)CN(C)[C@@H]([C@@H]2CCCNC2)COC(=O)C(C)(C)C(=O)[C@H](C)[C@H]1O[C@@H]1O[C@H](C)C[C@H](N(C)C)[C@H]1O [Compound 53] | < 4 | < 4 | 4 to 32 (≈ 6.85 to 54.8 µM) | > 32 | > 32
CO[C@]1(C)C[C@@H](C)CN(C)[C@@H]([C@H]2CCCN(C(C)C)C2)COC(=O)C(C)(C)C(=O)[C@H](C)[C@H]1O[C@@H]1O[C@H](C)C[C@H](N(C)C)[C@H]1O [Compound 56, (3S,6R,8R,9R,10R)-9-(((2S,3R,4S,6R)-4-(dimethylamino)-3-hydroxy-6-methyltetrahydro-2H-pyran-2-yl)oxy)-3-((S)-1-isopropylpiperidin-3-yl)-8-methoxy-4,6,8,10,12,12-hexamethyl-1-oxa-4-azacyclotridecane-11,13-dione] | > 32 | > 32 | > 32 | > 32 | > 32
CO[C@]1(C)C[C@@H](C)CN(C)[C@@H]([C@H]2CCN(C(C)C)C2)COC(=O)C(C)(C)C(=O)[C@H](C)[C@H]1O[C@@H]1O[C@H](C)C[C@H](N(C)C)[C@H]1O [Compound 57, (3S,6R,8R,9R,10R)-9-(((2S,3R,4S,6R)-4-(Dimethylamino)-3-hydroxy-6-methyltetrahydro-2H-pyran-2-yl)oxy)-3-((S)-1-isopropylpyrrolidin-3-yl)-8-methoxy-4,6,8,10,12,12-hexamethyl-1-oxa-4-azacyclotridecane-11,13-dione] | 4 to 32 (≈ 6.54 to 52.3 µM) | < 4 | 4 to 32 (≈ 6.54 to 52.3 µM) | > 32 | > 32
CO[C@]1(C)C[C@@H](C)CN(C)[C@H](C2CCN(CC(F)F)CC2)COC(=O)C(C)(C)C(=O)[C@H](C)[C@H]1O[C@@H]1O[C@H](C)C[C@H](N(C)C)[C@H]1O [Compound 62, (3R,6R,8R,9R,10R)-3-(1-(2,2-difluoroethyl)piperidin-4-yl)-9-(((2S,3R,4S,6R)-4-(dimethylamino)-3-hydroxy-6-methyltetrahydro-2H-pyran-2-yl)oxy)-8-methoxy-4,6,8,10,12,12-hexamethyl-1-oxa-4-azacyclotridecane-11,13-dione] | 4 to 32 (≈ 6.17 to 49.4 µM) | < 4 | 4 to 32 (≈ 6.17 to 49.4 µM) | > 32 | > 32
CCCN1CCC([C@H]2COC(=O)C(C)(C)C(=O)[C@H](C)[C@@H](O[C@@H]3O[C@H](C)C[C@H](N(C)C)[C@H]3O)[C@](C)(OC)C[C@@H](C)CN2C)CC1 [Compound 63, (3S,6R,8R,9R,10R)-9-(((2S,3R,4S,6R)-4-(dimethylamino)-3-hydroxy-6-methyltetrahydro-2H-pyran-2-yl)oxy)-8-methoxy-4,6,8,10,12,12-hexamethyl-3-(1-propylpiperidin-4-yl)-1-oxa-4-azacyclotridecane-11,13-dione] | < 4 | < 4 | 4 to 32 (≈ 6.39 to 51.1 µM) | > 32 | > 32
CO[C@]1(C)C[C@@H](C)CN(C)[C@@H](C2CCN(C)CC2)COC(=O)C(C)(C)C(=O)[C@H](C)[C@H]1O[C@@H]1O[C@H](C)C[C@H](N(C)C)[C@H]1O [Compound 64, (3S,6R,8R,9R,10R)-9-(((2S,3R,4S,6R)-4-(dimethylamino)-3-hydroxy-6-methyltetrahydro-2H-pyran-2-yl)oxy)-8-methoxy-4,6,8,10,12,12-hexamethyl-3-(1-methylpiperidin-4-yl)-1-oxa-4-azacyclotridecane-11,13-dione] | < 4 | < 4 | 4 to 32 (≈ 6.69 to 53.5 µM) | > 32 | > 32
CO[C@]1(C)C[C@@H](C)CN(C)[C@H]([C@@H]2CCCN2)COC(=O)C(C)(C)C(=O)[C@H](C)[C@H]1O[C@@H]1O[C@H](C)C[C@H](N(C)C)[C@H]1O [Compound 65, (3R,6R,8R,9R,10R)-9-(((2S,3R,4S,6R)-4-(dimethylamino)-3-hydroxy-6-methyltetrahydro-2H-pyran-2-yl)oxy)-8-methoxy-4,6,8,10,12,12-hexamethyl-3-((S)-pyrrolidin-2-yl)-1-oxa-4-azacyclotridecane-11,13-dione] | > 32 | 4 to 32 (≈ 7.02 to 56.2 µM) | > 32 | > 32 | > 32
CO[C@]1(C)C[C@@H](C)CN(C)[C@H](C2CCN(C(=O)CNCC(C)C)CC2)COC(=O)C(C)(C)C(=O)[C@H](C)[C@H]1O[C@@H]1O[C@H](C)C[C@H](N(C)C)[C@H]1O [Compound 66, (3R,6R,8R,9R,10R)-9-(((2S,3R,4S,6R)-4-(dimethylamino)-3-hydroxy-6-methyltetrahydro-2H-pyran-2-yl)oxy)-3-(1-(isobutylglycyl)piperidin-4-yl)-8-methoxy-4,6,8,10,12,12-hexamethyl-1-oxa-4-azacyclotridecane-11,13-dione] | 4 to 32 (≈ 5.74 to 45.9 µM) | < 4 | > 32 | > 32 | > 32
CO[C@]1(C)C[C@@H](C)CN(C)[C@@H]([C@H]2CCN(C(=O)CN(C)C)C2)COC(=O)C(C)(C)C(=O)[C@H](C)[C@H]1O[C@@H]1O[C@H](C)C[C@H](N(C)C)[C@H]1O [Compound 67, (3S,6R,8R,9R,10R)-9-(((2S,3R,4S,6R)-4-(dimethylamino)-3-hydroxy-6-methyltetrahydro-2H-pyran-2-yl)oxy)-3-((S)-1-(dimethylglycyl)pyrrolidin-3-yl)-8-methoxy-4,6,8,10,12,12-hexamethyl-1-oxa-4-azacyclotridecane-11,13-dione] | 4 to 32 (≈ 6.11 to 48.9 µM) | < 4 | > 32 | > 32 | > 32
